Each block holds one molecule with its values, some of them ahead of it. Where no end group is shown, it is not given here. [ ]: non-standard residue; d: D form. d2Nal = N[C@H](Cc1ccc2ccccc2c1)C(=O)O
Assays:
[1] = target: T1, Ghrelin/GHRP/GHS Receptor (Rattus norvegicus, UniProt O08725); assay: GH release from isolated pituitary glands, pituitary incubation method; format: cell-based
Protocol: Hormonal activities were obtained from in vitro studies using pituitaries of 20 day old CD-1 strain Sprague Dawley female rats. Two pituitaries were incubated for a total of 4-6 hours. Medium was removed each hour for RIA of GH level and fresh medium was added again. After two one hour preincubation periods (P1-P2), the vehicle/peptides were added to two one hour incubations (I3-I4). Peptide activity was calculated as the change in the hormonal level (delta) between I3+I4 and P2. For antagonist activity, the incubation was continued for 2 additional hours (I5-I6) where both the peptide and a stimulator of GH secretion was added and the antagonist activity was calculated as the change in the hormonal level (delta) between I5+I6 and P2. The peptides were assayed in triplicate and the hormone was assayed in duplicate. Each value recorded represents the mean of 6. The GH RIA reagents were distributed by the NIH. Control data was collected from isolated pituitary glands treated with only the corresponding vehicle in the absence of peptide or stimulator. Control stimulated data was collected from isolated pituitary glands treated with stimulator alone in the absence of any peptide.

[2] = target: T2, hypothalamic ghrelin receptor (Rattus norvegicus, UniProt O08725); assay: Spontaneous and ghrelin-stimulated GH secretion after icv ghrelin analogs in adult male rats; format: in vivo; set-up: from tissue; host or cells: whole animal (adult male rats); conditions: ghrelin analog 10 μg icv, 6-h sampling
T2 sequence (O08725 whole entry): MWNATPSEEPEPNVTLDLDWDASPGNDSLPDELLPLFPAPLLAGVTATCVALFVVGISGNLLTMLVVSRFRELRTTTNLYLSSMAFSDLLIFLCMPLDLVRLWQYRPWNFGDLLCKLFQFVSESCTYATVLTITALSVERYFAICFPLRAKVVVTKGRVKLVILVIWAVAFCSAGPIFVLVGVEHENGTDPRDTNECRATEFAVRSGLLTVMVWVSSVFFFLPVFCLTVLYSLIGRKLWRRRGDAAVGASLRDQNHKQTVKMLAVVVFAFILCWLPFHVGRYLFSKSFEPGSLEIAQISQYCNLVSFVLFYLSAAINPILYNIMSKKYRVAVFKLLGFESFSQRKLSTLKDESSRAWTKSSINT
Protocol: (§1) In vivo effects were measured on spontaneous and ghrelin-stimulated GH secrtion over a 6-h sampling period, and food intake monitored hourly over a 5-h period and body weight change over 24 h.

[3] = target: T2, hypothalamic ghrelin receptor; assay: Food intake and body weight change after icv ghrelin analogs in adult male rats; format: in vivo; set-up: from tissue; host or cells: whole animal (adult male rats); conditions: ghrelin analog 10 μg icv, monitored hourly over 5 h
Protocol: as §1

GHS-R 1a [4] = target: T3, GHS-R 1a (Rattus norvegicus, UniProt O08725); assay: Spontaneous pulsatile GH secretion in free-moving adult male rats; format: in vivo
T3 construct: free-moving rats were i.c.v. injected with either normal saline or GHS-A (5 μg); from tissue; host or cells: whole animal (adult male Sprague Dawley rats)
T3 sequence (O08725 whole entry): as above
Protocol: Adult male Sprague Dawley rats (225-260 g) were purchased from Charles River Canada (St. Constant, Canada) and individually housed on a 12-h light, 12-h dark cycle (lights on, 0600-1800 h) in a temperature (22±1° C.)—and humidity-controlled room. Purina rat chow (Ralston Purina Co., St. Louis, Mo.) and tap water were available ad libitum.
Chronic intracerebroventricular (i.c.v.) and intracardiac venous cannulas were implanted under sodium pentobarbital (50 mg/kg, i.p.) anesthesia using previously described techniques in (2) and (11). The placement of the icy cannulae was verified by both a positive drinking response to i.c.v. carbachol (100 ng/10 μl) injection on the day after surgery and methylene blue dye at the time of death. After surgery, the rats were placed directly in isolation test chambers with food and H2O freely available until body weight returned to preoperative levels (usually within 5-7 d). During this time the rats were handled daily to minimize any stress associated with handling on the day of the experiment. On the test day, food was removed 1.5 h before the start of sampling and was returned at the end.
These time points were chosen because they correspond closely to the time of onset of the spontaneous GH secretory episodes, as previously documented in our laboratory (2, 4). Blood samples were withdrawn from 1000-1600 h, as described above; however, no blood sample was withdrawn 5 min after the injections.

GHS-R 1a [5] = target: T3, GHS-R 1a; assay: Ghrelin-induced GH release in free-moving adult male rats; format: in vivo; conditions: for GH response to i.c.v. ghrelin: 5 μg antagonist i.c.v. 15 min before 500 ng ghrelin i.c.v.
Protocol: Adult male Sprague Dawley rats (225-260 g) were purchased from Charles River Canada (St. Constant, Canada) and individually housed on a 12-h light, 12-h dark cycle (lights on, 0600-1800 h) in a temperature (22±1° C.)—and humidity-controlled room. Purina rat chow (Ralston Purina Co., St. Louis, Mo.) and tap water were available ad libitum. Chronic intracerebroventricular (i.c.v.) and intracardiac venous cannulas were implanted under sodium pentobarbital (50 mg/kg, i.p.) anesthesia using previously described techniques in (2) and (11). […] During this time the rats were handled daily to minimize any stress associated with handling on the day of the experiment. On the test day, food was removed 1.5 h before the start of sampling and was returned at the end. […] Both the human ghrelin peptide (provided by Dr. K. Chang, Phoenix Pharmaceuticals, Inc., Belmont, Calif.) and the GHS-A were diluted in normal saline just before use. Blood samples (0.35 ml) were withdrawn every 15 min over a 6-h sampling period (1000-1600 h) from all animals. […] All blood samples were immediately centrifuged, and plasma was separated and stored at −20° C. for subsequent assay of GH. To avoid hemodynamic disturbance, the red blood cells were resuspended in normal saline and returned to the animal after removal of the next blood sample. […] Blood samples were withdrawn from 1000-1600 h, as described above.

GHS-R 1a [6] = target: T3, GHS-R 1a; assay: Spontaneous and ghrelin-induced food intake in rats; format: in vivo
Protocol: The effects of the GHS-A on both spontaneous and ghrelin-induced food intake and body weight gain were investigated. For the spontaneous experiments, the rats were fasted overnight (1600-1100 h next morning) and were i.c.v.-injected with either normal saline or GHS-A (5 μg) at 1100 h. Food intake was monitored on an hourly basis for 5 h after the initial injection (until 1600 h) and subsequently overnight (1600-0900 h next morning). A measured amount of rat chow pellets was placed in the cage every hour. Spillage was collected by placement of a diaper under the rat cages, and total food consumed for each period was calculated by subtracting uneaten food plus spillage from total given. Body weights were recorded daily at 0900 h. The latency to the onset of the first meal after the injection and the duration of that meal were also monitored.
Food intake was monitored on an hourly basis as described above. In this experiment, food was removed 1.5 h before the start of the test.

[7] = target: T1, Ghrelin/GHRP/GHS Receptor; assay: In vivo GH release in rat after i.v. peptide (serum GH by RIA)
Protocol: For the in vivo assay of GH Release in rat, immature female Sprague Dawley rats were obtained from Charles River from Wilmington, Mass. After arrival they were housed at 25° C. with a 14:10 h light:dark cycle. Water and Purina rat chow were available at libitum. Pups were weaned at 21 days of age.
Immature twenty six day old female Sprague Dawley rats, 3-6 rats per treatment dose, were pretreated with pentobarbital 20 minutes before iv injection of vehicle/peptide or peptide plus stimulator. Injection was made as a 0.1 ml solution. For the non-pentobarbital treated rat assay, peptides were administered iv into the tail vein of conscious rats. All animals were sacrificed by guillotine after iv peptide or vehicle. Trunk blood was collected at +10-15 minutes […], allowed to clot, centrifuged and serum stored until assayed for GH levels by RIA. The GH RIA reagents were distributed by the NIH. Control data was collected from rats treated with only the corresponding vehicle in the absence of peptide or stimulator. Control stimulated data was collected from rats treated with stimulator alone in the absence of any peptide.

GHRH = assay: GH response to GHRH in rats; format: in vivo, rat; conditions: GHRH 5 μg i.v.
[8] = target: T4, human ghrelin receptor type 1a (GHS-R1a) (Homo sapiens, UniProt Q92847); assay: Receptor binding, displacement of radiolabelled ghrelin, HEK-293 cell membranes
T4 construct: expressed in transfected cells; host or cells: HEK-293 cells (membranes)
T4 sequence (Q92847 whole entry): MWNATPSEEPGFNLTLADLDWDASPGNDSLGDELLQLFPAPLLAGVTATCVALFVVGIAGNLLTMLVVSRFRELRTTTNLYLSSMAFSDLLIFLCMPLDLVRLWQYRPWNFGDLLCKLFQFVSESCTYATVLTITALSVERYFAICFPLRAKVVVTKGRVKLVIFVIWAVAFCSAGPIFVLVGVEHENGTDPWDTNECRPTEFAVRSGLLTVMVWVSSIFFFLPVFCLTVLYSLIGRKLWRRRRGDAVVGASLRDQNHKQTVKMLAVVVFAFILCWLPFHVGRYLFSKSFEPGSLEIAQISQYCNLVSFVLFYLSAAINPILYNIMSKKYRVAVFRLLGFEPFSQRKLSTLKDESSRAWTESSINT

[9] = 5 μg i.c.v. before ghrelin 500 ng i.c.v.
[10] = 5 μg i.c.v., overnight-fasted animals
[11] = peptide antagonist 30 μg/ml + stimulator His-DTrp-Ala-Trp-DPhe-Lys-NH2 10 ng/ml

T1 sequence (O08725 whole entry): as the sequence (O08725 whole entry) above

Molecule: H[dW][dK]W[dF]K-NH2 [6-His-DTrp-DLys-Trp-DPhe-Lys-NH2]
Stimulated GH release ([1]; peptide antagonist 1 μg/ml + stimulator His-DTrp-Ala-Trp-DPhe-Lys-NH2 10 ng/ml): 324 ± 181 ng/mL

Molecule: Gly-Met-Ala-Gly-Ser-(Dap-Palmityl)-Phe-Leu-Ser-Pro-Glu-His-NH2 (GMAGS[Dap(palmityl)]FLSPEH-NH2) [#6]
spontaneous growth hormone secretion / plasma GH levels [2]: did not inhibit
(cumulative) food intake [3]: did not inhibit GH secretion or decreased food intake

Molecule: H[d2Nal][dK]W[dF]K-NH2 [4-His-DβNal-DLys-Trp-DPhe-Lys-NH2]
1-h GH AUC's of spontaneous GH secretory episodes (1100 h, 1400 h) and overall 6-h GH AUC (GHS-R 1a [4]; 5 μg i.c.v.): significantly reduced
GH peak frequency, interpeak interval and nadir (cluster analysis) (GHS-R 1a [4]; 5 μg i.c.v.): no significant effect
GH peak height (cluster analysis) (GHS-R 1a [4]; 5 μg i.c.v.): significant suppression
amplitude of the spontaneous GH pulses (GHS-R 1a [4]; 5 μg i.c.v. 15 min before expected GH bursts): severely attenuated
GH response to i.c.v. ghrelin (GHS-R 1a [5]): virtually obliterated
GH response to i.c.v. ghrelin (GHS-R 1a [5]; listed as GHS-A): abolished
reduction of GH AUC following i.c.v. ghrelin vs saline-pretreated controls (GHS-R 1a [5]; 5 μg i.c.v. pretreatment, ghrelin 500 ng i.c.v.): 15 fold
GH response to i.v. ghrelin (GHS-R 1a [5]; 250 μg antagonist i.v. 15 min before 5 μg ghrelin i.v., listed as GHS-A): strongly blocked
reduction of GH AUC following i.v. ghrelin vs saline-pretreated controls (GHS-R 1a [5]; 250 μg i.v. pretreatment, ghrelin 5 μg i.v.): 5 fold
cumulative food intake after ghrelin, up to 5 h (GHS-R 1a [6]; [9]): significantly suppressed
ghrelin-stimulated food intake, first hour after injections (GHS-R 1a [6]; [9]): significantly inhibited
cumulative spontaneous food intake beyond the first hour (GHS-R 1a [6]; [10]): not inhibited
spontaneous food intake, first hour after injection (GHS-R 1a [6]; [10]): significantly inhibited
Stimulated GH release ([7]; peptide antagonist 30 μg i.v. + stimulator 0.3 μg): 733 ± 85 ng/mL
Stimulated GH release ([7]; peptide antagonist 100 μg i.v. + stimulator 1 μg): 818 ± 269 ng/mL
GH response to GHRH (GHRH): did not significantly reduce

Molecule: DesaminoTyr-DTrp-Ser-Trp-DPhe-NH2 [10-DesaminoTyr-DTrp-Ser-Trp-DPhe-NH2]
Stimulated GH release [1, 11]: 3258 ± 682 ng/mL

Continued, values first:

Stimulated Control GH release (stimulator *S alone) ([1]; Table 12, *S = Tyr-DTrp-Ala-Trp-DPhe-NH2 0.3 μg/ml): 2218 ± 194 ng/mL
Molecule: Y[dW]AW[dF]-NH2 [reference compound]

IC50 [8]: 0.284 µM
Ki [8]: 0.159 µM
% INH, Ghrelin/GHS Antagonist Receptor Activity ([8]; concentration not given): 86%
Molecule: CSCC[C@H](NC(=O)CN)C(=O)N[C@@H](C)C(=O)NCC(=O)N[C@@H](CO)C(=O)N[C@@H](Cc1c[nH]c2ccccc12)C(=O)N[C@@H](Cc1ccccc1)C(=O)N[C@@H](CC(C)C)C(=O)N[C@@H](CO)C(=O)N1CCC[C@H]1C(=O)N[C@@H](CCC(=O)O)C(=O)N[C@@H](Cc1c[nH]cn1)C(=O)N[C@@H](CCC(N)=O)C(=O)N[C@@H](CCCNC(=N)N)C(=O)N[C@H](C(=O)N[C@@H](CCC(N)=O)C(=O)N[C@@H](CCC(N)=O)C(=O)N[C@@H](CCCNC(=N)N)C(=O)N[C@@H](CCCCN)C(=O)N[C@@H](CCC(=O)O)C(=O)N[C@@H](CO)C(=O)N[C@@H](CCCCN)C(=O)N[C@@H](CCCCN)C(=O)N1CCC[C@H]1C(=O)N1CCC[C@H]1C(=O)N[C@@H](C)C(=O)N[C@@H](CCCCN)C(=O)N[C@@H](CC(C)C)C(=O)N[C@@H](CCC(N)=O)C(=O)N1CCC[C@H]1C(=O)N[C@@H](CCCNC(=N)N)C(=O)O)C(C)C [#7]

Stimulated GH release [1, 11]: -167 ± 157 ng/mL
Molecule: Y[dW][dW]FF-NH2 [12-Tyr-DTrp-DTrp-Phe-Phe-NH2]

Source: US9315546B2, “Growth hormone secretatogue receptor antagonists and uses thereof” (The Administrators of the Tulane Educational Fund, priority 2010, dated 2016)
